In US6573255B1, “Vitamin D analogues” (Leo Pharmaceutical Products Ltd., A/S, priority 1999, dated 2003):
Like-named read-outs stand apart in the source and are kept apart here.

What was measured:
[1] = calcemic activity, rat calciuric model (urinary excretion of calcium)
Description: (§1) The present invention provides a hitherto undisclosed series of vitamin D analogues which is characterised by the presence of an additional hydroxy group or halogen atom in the 26 position of the side chain.

[2] = test system: U937 leukemia cell; test: U937 leukemia cell assay (antiproliferative activity); type: cell-based; settings: for U937, -log IC50: U937 leukemia cells; for U937, rel.: geometric mean of the ratios relative to 1α,25(OH)2D3, higher = more potent
Description: as §1

[3] = test system: MCF-7 mammary cancer cell; test: MCF-7 mammary cancer cell assay (antiproliferative activity); type: cell-based; settings: for MCF-7, -log IC50: MCF-7 mammary cancer cells; for MCF-7, rel.: geometric mean of the ratios relative to 1α,25(OH)2D3, higher = more potent
Description: as §1

[4] = test system: HaCaT; test: HaCaT assay, a psoriasis model; type: cell-based; settings: for HaCaT, -log IC50: HaCaT cells; for HaCaT, rel.: geometric mean of the ratios relative to 1α,25(OH)2D3, higher = more potent
Description: as §1

[5] = in vitro model of metabolic stability, rat liver homogenate S-9; type: in vitro ADME
Description: Another problem using vitamin D analogues in the non-topical treatment of hyperproliferative diseases, such as cancer, is metabolic stability in vivo. This stability has to be above a certain minimum level, for a compound to be used in practical therapy.

[6] = test system: mammary tumours; settings: rats with mammary tumours, 1 μg/kg body weight for 28 days; cited from earlier work
[7] = test system: different types of cancer cells; settings: brain glial tumor, MCF-7, NB4, HL-60, acute myeloid leukemia, MG-63 cells; cited from earlier work
[8] = test system: human carcinoma cells; settings: in vitro; cited from earlier work
[9] = relative to 1α,25(OH)2D3; cited from earlier work
[10] = chronically uraemic rats with secondary hyperparathyroidism; cited from earlier work

| Compound | Calcem.; in vivo ([1]; rat, in vivo) | S-9, metab. in vitr.: fraction left after 1 hour incubation [5] | half-life ([5]; rat) [h] | U937, -log IC50 [2] | U937, rel. [2] | MCF-7, -log IC50 [3] | MCF-7, rel. [3] | HaCaT, -log IC50 [4] | HaCaT, rel. [4] | T½ ([5]; rat liver homogenate S-9) [h] | reduction of the initial tumour volume [6] [%] | serum calcium concentration [6] | Calcem.; in vivo ([1]; rat calciuric model, geometric mean of the ratios relative to 1α,25(OH)2D3) | inhibitory activity on proliferation of cancer cells [7] | inhibiting the invasiveness of human carcinoma cells [8] | calcemic vitamin D activity, urinary excretion of calcium in rats, % of that of 1α,25(OH)2D3 [9] [%] | S-9, metab. in vitr.: fraction left after 1 hour incubation ([5]; rat liver homogenate S-9, 1 hour incubation) | stability in in vitro model of metabolic stability ([5]; rat liver homogenate S-9, compared to seocalcitol and 1α,25(OH)2D3) | plasma PTH level [10] | plasma phosphate level [10] |
| --- | --- | --- | --- | --- | --- | --- | --- | --- | --- | --- | --- | --- | --- | --- | --- | --- | --- | --- | --- | --- |
| C=C1/C(=C\C=C2/CCC[C@]3(C)[C@@H]([C@H](C)/C=C/C=C/C(O)(CC)CC)CC[C@@H]23)C[C@@H](O)C[C@@H]1O [seocalcitol] |  |  | 1.3 |  |  |  |  |  |  |  |  |  |  |  |  |  |  |  |  |  |
| C=C1/C(=C\C=C2/CCC[C@]3(C)[C@@H]([C@H](C)CCCC(C)(C)O)CC[C@@H]23)C[C@@H](O)C[C@@H]1O [1α,25(OH)2D3] | 1.0 |  |  | 7.5 ± 0.3 | 1.0 | 7.7 ± 0.3 | 1.0 |  | 1.0 | 2.5 |  |  |  |  |  |  |  |  |  |  |
| C=C1C(=CC=C2CCCC3(C)C2CCC3C(C)C(C#CCC(O)(CC)CC)OCC)CC(O)CC1O (stereo not drawn) [CB1093, 20-epi-22-ethoxy-23-yne-24a, 26a, 27a, trishomo-1α,25(OH)2D3 vitamin D3] |  |  |  | 9.5 ± 0.1 | 74 | 10.2 ± 0.3 | 311 | 8.7 ± 0.9 | 18 |  | 49 | slight increase | 0.27 | potent inhibitory activity | potent activity | 27 | 0.02 | quite low | significantly decreased | significantly decreased |

Continued, in another order:

| Calcem.; in vivo ([1]; rat, in vivo) | S-9, metab. in vitr.: fraction left after 1 hour incubation [5] | half-life ([5]; rat) [h] | Compound | U937, -log IC50 [2] | U937, rel. [2] | MCF-7, -log IC50 [3] | MCF-7, rel. [3] | HaCaT, -log IC50 [4] | HaCaT, rel. [4] | T½ ([5]; rat liver homogenate S-9) [h] | reduction of the initial tumour volume [6] [%] | serum calcium concentration [6] | Calcem.; in vivo ([1]; rat calciuric model, geometric mean of the ratios relative to 1α,25(OH)2D3) | inhibitory activity on proliferation of cancer cells [7] | inhibiting the invasiveness of human carcinoma cells [8] | calcemic vitamin D activity, urinary excretion of calcium in rats, % of that of 1α,25(OH)2D3 [9] [%] | S-9, metab. in vitr.: fraction left after 1 hour incubation ([5]; rat liver homogenate S-9, 1 hour incubation) | stability in in vitro model of metabolic stability ([5]; rat liver homogenate S-9, compared to seocalcitol and 1α,25(OH)2D3) | plasma PTH level [10] | plasma phosphate level [10] |
| --- | --- | --- | --- | --- | --- | --- | --- | --- | --- | --- | --- | --- | --- | --- | --- | --- | --- | --- | --- | --- |
| 0.6 | 0.29 |  | C=C1/C(=C\C=C2/CCC[C@]3(C)[C@@H]([C@@H](C)[C@@H](C#CC[C@@](O)(CC)[C@@H](C)O)OCC)CC[C@@H]23)C[C@@H](O)C[C@@H]1O [Compound 108, 1(S),3(R)-Dihydroxy-20(R)-(5(S),6(R)-dihydroxy-1(S)-ethoxy-5-ethyl-2-heptyn-1-yl)-9,10-secopregna-5(Z),7(E),10(19)-triene] | 8.9 ± 0.2 | 49 | 9.8 ± 0.2 | 89 | 8.8 ± 0.2 | 30 |  |  |  |  |  |  |  |  |  |  |  |
| 0.11 | 0.43 |  | C=C1C(=CC=C2CCCC3(C)C2CCC3C(C)C(C#CCC(O)(CC)C(C)O)OCC)CC(O)CC1O [Compound 103, 1(S),3(R)-Dihydroxy-20(R)-(5(S),6(S)-dihydroxy-1(S)-ethoxy-5-ethyl-2-heptyn-1-yl)-9,10-secopregna-5(Z),7(E),10(19)-triene] | 9.0 ± 0.2 | 36 | 9.9 ± 0.1 | 153 | 9.0 ± 0.3 | 38 |  |  |  |  |  |  |  |  |  |  |  |
